Values quoted from earlier work as cited in patent publication EP0225997A2, “Use of urea derivatives for preparing a pharmaceutical composition for the treatment of a virus-induced disease” (Die Deutsches Primatenzentrum GmbH, priority 1985, dated 1987).

System: HTLV-III
Conditions: Mitsuya et al. Science, 226 page 172-174, 1984

SMILES: Cc1ccc(C(=O)Nc2ccc(S(=O)(=O)O)c3cc(S(=O)(=O)O)cc(S(=O)(=O)O)c23)cc1NC(=O)c1cccc(NC(=O)Nc2cccc(C(=O)Nc3cc(C(=O)Nc4ccc(S(=O)(=O)O)c5cc(S(=O)(=O)O)cc(S(=O)(=O)O)c45)ccc3C)c2)c1 [suramin]
- HTLV-III replications in culture: reduce HTLV-III replications in culture
